Measurements: patent EP3339292A1, “COCRYSTALS OF APREMILAST” (Zaklady Farmaceutyczne Polpharma SA, priority 2016, dated 2018)

Experiments:
Assay type in all cases: physicochemical
[1] = Moisture sorption analysis (Dynamic Vapour Sorption, DVS); details: result in words
Protocol: Water Vapour Sorption isotherms were obtained using a Dynamic Vapour Sorption apparatus (model: DVS - Advantage, supplier: Surface Measurement Systems Limited). The DVS apparatus consists of an ultra-microbalance housed inside a temperature-controlled cabinet. The sample was placed into a DVS sample pan under a stream of nitrogen (200 sccm) at 25°C. The humidity was increased ramping in 10% RH (relative humidity) steps from close to 0% RH to 90% RH (sorption phase). Next the humidity was decreased in a similar fashion for the desorption phase. The sample was held at each RH step for mass stabilization (dm/dt 0.02 %/min) but not less than 10 minutes. Two cycles of sorption and desorption were investigated.

Solubility of cocrystal = details: RT
[2] = Dissolution studies (Ph. Eur. paddle method, tablets, HPLC analysis); details: buffer pH 6.8 + 0.3% SLS, result in words
Protocol: Dissolution studies were performed using a Hanson SR8PLUS dissolution apparatus, according to European Pharmacopoeia apparatus, paddle method. The samples were tested in 900mL pH 6.8 with 0.3% SLS at 37.0°C +/- 0.5°C and the paddle rotation speed was set at 75 rpm. Dissolution study was conducted for 60min and samples were analyzed using HPLC method.
• Injection Volume: 0.5, 0.2 µl; • Run Time: 15.0 minutes; • Column: Symmetry C18; 250x4,6mm; 5µm, Vial: 1:A,1, 1:c,7, 1:c,8; • Mobile phase: gradient: acetonitrile : buffer (1 vol. TEA and 150 vol. 2,7g/l KH2PO4, pH2,0 adjust with H3PO4); • Column temp: 25°C; and • Flow: 1 ml/min.

hygroscopicity [1]	Solubility (Solubility of cocrystal)	dissolution profile compared to prior art Form B of Apremilast ([2]; listed as cocrystal of Apremilast with 4-hydroxybenzoic acid)	dissolution profile compared to prior art Form B of Apremilast ([2]; listed as cocrystals of Apremilast with 4-hydroxybenzoic acid)	dissolution profile compared to prior art Form B of Apremilast [2]	Compound
slightly hygroscopic	Solubility: 42.5µg/ml (RT)	higher dissolution rate	superior dissolution profile	–	CCOc1cc([C@@H](CS(C)(=O)=O)N2C(=O)c3cccc(NC(C)=O)c3C2=O)ccc1OC.O=C(O)c1ccc(O)cc1 [APM-4HB, Cocrystal of N-[2-[(1S)-1-(3-ethoxy-4-methoxyphenyl)-2-(methylsulfonyl)ethyl]-1,3-dioxo-2,3-dihydro-1H-isoindol-4-yl]acetamide and 4-hydroxybenzoic acid]
slightly hygroscopic	–	–	–	higher dissolution rate	CCOc1cc([C@@H](CS(C)(=O)=O)N2C(=O)c3cccc(NC(C)=O)c3C2=O)ccc1OC.Cn1c(=O)c2c(ncn2C)n(C)c1=O [APM-CAF, Cocrystal of N-[2-[(1 S)-1-(3-ethoxy-4-methoxyphenyl)-2-(methylsulfonyl)ethyl]-1,3-dioxo-2,3-dihydro-1H-isoindol-4-yl]acetamide and 1,3,7-trimethylpurine-2,6-dione (caffeine)]
